In US10208081B2, “Bile acid derivatives as FXR/TGR5 agonists and methods of use thereof” (Enanta Pharmaceuticals, Inc., priority 2014, dated 2019):

Target: human FXR (NR1H4) (Homo sapiens (Human), UniProt Q96RI1)
Test: Human FXR (NR1H4) Assay (Gal4 promoter driven luciferase reporter, Indigo Bioscience kit IB00601)
Format: cell-based
Details: for Efficacy (%): efficacy normalized to CDCA set as 100%; for EC50: potency ranges
Procedure, shortened: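 CHO reporter cells expressing human FXR with Gal4-driven, FXR-responsive luciferase treated with compound doses (0.2% DMSO) for 22 hours at 37° C. Luciferase luminescence then measured as surrogate of FXR activation for potency and efficacy.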

Sequence of human FXR (NR1H4) (Q96RI1 whole entry, the tested form may be a part): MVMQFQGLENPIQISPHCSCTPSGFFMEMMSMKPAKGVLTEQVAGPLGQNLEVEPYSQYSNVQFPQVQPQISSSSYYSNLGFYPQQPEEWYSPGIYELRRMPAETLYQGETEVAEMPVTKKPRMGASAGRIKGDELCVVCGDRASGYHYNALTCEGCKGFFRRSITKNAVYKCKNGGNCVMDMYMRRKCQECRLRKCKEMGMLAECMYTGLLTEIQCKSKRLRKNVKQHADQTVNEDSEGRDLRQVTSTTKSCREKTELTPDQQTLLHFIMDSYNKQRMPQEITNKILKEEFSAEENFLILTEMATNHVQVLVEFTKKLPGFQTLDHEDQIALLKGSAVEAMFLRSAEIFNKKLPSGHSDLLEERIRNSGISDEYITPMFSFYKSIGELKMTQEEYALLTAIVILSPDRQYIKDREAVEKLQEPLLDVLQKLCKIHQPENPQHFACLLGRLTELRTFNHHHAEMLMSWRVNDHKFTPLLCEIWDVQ

SMILES	Efficacy (%)	EC50
CC[C@H]1[C@@H](O)[C@@H]2[C@H](CC[C@]3(C)[C@@H]([C@H](C)CCCNC(=O)NS(=O)(=O)c4ccc(C(C)(C)C)cc4)CC[C@@H]23)[C@@]2(C)CC[C@@H](O)C[C@@H]12 [Example 12]	327%	< 0.1 µM
CC[C@H]1[C@@H](O)[C@@H]2[C@H](CC[C@]3(C)[C@@H]([C@H](C)CCCNC(=O)NS(=O)(=O)c4ccc(OC(F)(F)F)cc4)CC[C@@H]23)[C@@]2(C)CC[C@@H](O)C[C@@H]12 [Example 18]	319%	< 0.1 µM
CC[C@H]1[C@@H](O)[C@@H]2[C@H](CC[C@]3(C)[C@@H]([C@H](C)CCNC(=O)NC(C)C)CC[C@@H]23)[C@@]2(C)CC[C@@H](O)C[C@@H]12 [Example 7]	259%	1 to 10 µM
CC[C@H]1[C@@H](O)[C@@H]2[C@H](CC[C@]3(C)[C@@H]([C@H](C)CCCNC(=O)NS(=O)(=O)c4ccc5ccccc5c4)CC[C@@H]23)[C@@]2(C)CC[C@@H](O)C[C@@H]12 [Example 19]	323%	0.1 to 1 µM
CC[C@H]1[C@@H](O)[C@@H]2[C@H](CC[C@]3(C)[C@@H]([C@H](C)CNS(=O)(=O)c4cccc(N5CCCCC5)c4)CC[C@@H]23)[C@@]2(C)CC[C@@H](O)C[C@@H]12 [Example 142]	7%	–
CC[C@H]1[C@@H](O)[C@@H]2[C@H](CC[C@]3(C)[C@@H]([C@H](C)CCNC(=O)NS(=O)(=O)c4ccc(-c5ccno5)cc4C)CC[C@@H]23)[C@@]2(C)CC[C@@H](O)C[C@@H]12 [Example 72]	384%	0.1 to 1 µM
CC[C@H]1[C@@H](O)[C@@H]2[C@H](CC[C@]3(C)[C@@H]([C@H](C)CCNC(=O)NS(=O)(=O)c4cccc(F)c4)CC[C@@H]23)[C@@]2(C)CC[C@@H](O)C[C@@H]12 [Example 51]	319%	< 0.1 µM
CC[C@H]1[C@@H](O)[C@@H]2[C@H](CC[C@]3(C)[C@@H]([C@H](C)CNC(=O)NS(=O)(=O)c4ccccc4)CC[C@@H]23)[C@@]2(C)CC[C@@H](O)C[C@@H]12 [Example 31]	305%	0.1 to 1 µM
